24 molecules from ChEMBL document CHEMBL4257535, “Design, synthesis and biological evaluation of AKT inhibitors bearing a piperidin-4-yl appendant” (Medchemcomm, 2018) can be followed below.

Calls of active or inactive are those of the source. No cut-off for these calls is given here.

Data set [1] deals with T1, RAC-alpha serine/threonine-protein kinase (Homo sapiens, UniProt P31749). Put plainly: Inhibition of AKT in human PC3 cells assessed as reduction in GSK3beta phosphorylation at 1 to 10 uM after 4 hrs by Western blot analysis. It counts as cell-based. For orientation: Immunoblotting shows a protein as a band on a membrane.
Data set [2] addresses T1, RAC-alpha serine/threonine-protein kinase. The experiment in a line: Inhibition of AKT1 (unknown origin) at 0.1 uM using biotin-labelled STK as substrate measured after 45 mins by HTRF method relative to control. For orientation: TR-FRET usually uses a lanthanide donor and a delayed reading to cut background.
The target is the same in data set [3]. The experiment in a line: Inhibition of AKT1 (unknown origin) at 1 uM using biotin-labelled STK as substrate measured after 45 mins by HTRF method relative to control.
For data set [4], the system named is PC-3. Put plainly: Antiproliferative activity against human PC3 cells after 72 hrs by MTT assay. It counts as functional, cell-based. The note with it: PC-3, 72 h.
For data set [5], the target named is T1, RAC-alpha serine/threonine-protein kinase. Put plainly: Inhibition of AKT1 (unknown origin) using biotin-labelled STK as substrate measured after 45 mins by HTRF method.
The target is the same in data set [6]. The experiment in a line: Inhibition of AKT1 (unknown origin) at 50 nM using biotin-labelled STK as substrate measured after 45 mins by HTRF method relative to control.
Data set [7] is described as follows: in vitro. Further details: dose or concentration left out as unconfirmed. The note with it: human, liver microsomes.
Description: Intrinsic clearance in human liver microsomes at 10 mM preincubated for 10 mins followed by NADPH addition and measured after 5 to 60 mins by LC-MS analysis
The nature of data set [8]: in vitro. The arrangement: dose or concentration left out as unconfirmed. The note with it: human, liver microsomes. This is another data set of the same source.
Description: Half life in human liver microsomes at 10 mM preincubated for 10 mins followed by NADPH addition by LC-MS analysis
Data set [9] in a line: in vitro. Further details: dose or concentration left out as unconfirmed. The note with it: human, liver microsomes. The source holds these as a separate data set. For orientation: Microsomes from liver hold many membrane-bound enzymes, among them those of drug oxidation.
Description: Stability in human liver microsomes assessed as parent compound remaining at 10 mM preincubated for 10 mins followed by NADPH addition and measured after 60 mins by LC-MS analysis

T1 sequence (P31749 whole entry): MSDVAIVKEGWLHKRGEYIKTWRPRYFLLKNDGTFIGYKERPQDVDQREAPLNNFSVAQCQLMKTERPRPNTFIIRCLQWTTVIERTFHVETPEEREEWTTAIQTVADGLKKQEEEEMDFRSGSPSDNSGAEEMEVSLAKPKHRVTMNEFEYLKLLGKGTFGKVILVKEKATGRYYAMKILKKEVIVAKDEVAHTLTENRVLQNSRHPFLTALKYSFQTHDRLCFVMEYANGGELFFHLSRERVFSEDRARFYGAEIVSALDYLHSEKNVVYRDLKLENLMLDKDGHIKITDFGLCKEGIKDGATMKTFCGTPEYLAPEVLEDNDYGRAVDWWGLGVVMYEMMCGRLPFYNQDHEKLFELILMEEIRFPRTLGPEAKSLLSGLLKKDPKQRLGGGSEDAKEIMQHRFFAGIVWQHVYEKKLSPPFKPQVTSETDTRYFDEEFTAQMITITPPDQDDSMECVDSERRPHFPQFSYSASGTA

As for `CCn1c(-c2nonc2N)nc2c(C#CC(C)(C)O)ncc(OC[C@H]3CCCNC3)c21` [GSK-690693], in data set [1], the inhibition (commonly the drop in the measured response relative to a control, in per cent) is “Active”. Besides, the inhibition worked out at 98.5% in data set [2] and 99.5% in data set [3]. Further, the 50% inhibitory concentration (IC50) (commonly the concentration that inhibits the measured activity by half) in data set [4] was determined as 14.1 µM.
`O=C(N1CCN(c2ncnc3ccccc23)CC1)C1(c2ccc(F)cc2)CCNCC1` yielded an inhibition in [3] of 23%. The molecule further registered an IC50 in [4] of 13.7 µM.
As for `O=C(N1CCN(c2ncnc3[nH]nc(Cl)c23)CC1)C1(c2ccc(Br)cc2)CCNCC1`, the inhibition in data set [2] was found to be 84.5%; in data set [3] it was 95.4%. In addition, the IC50 was found to be 0.0329 µM in data set [5] and 32.4 µM in data set [4].
With `O=C(Cc1ccc(Cl)c(Cl)c1)N1CCN(c2ncnc3[nH]cc(Br)c23)CC1`, the inhibition in [6] is 65.5%. This molecule yielded an IC50 in data set [4] of 31.5 µM.
Regarding `O=C(N1CCN(c2ncnc3[nH]cnc23)CC1)C1(c2ccc(Br)cc2)CCNCC1`, in [3], the inhibition was 68%. Moreover, the IC50 in [4] was greater than 40 µM.
Regarding `O=C(N1CCN(c2ncnc3[nH]nc(Cl)c23)CC1)C1(c2ccc(F)cc2)CCNCC1`, the figures for the inhibition in [2] and in data set [3] were 60.9% and 86.7%, respectively. This molecule also came in with an IC50 in data set [4] of 37.4 µM.
`O=C(N1CCN(c2ncnc3[nH]cnc23)CC1)C1(c2ccc(Cl)c(Cl)c2)CCNCC1`: the inhibition in data set [3] is 51.4%. The molecule also came in with an IC50 in data set [4] of 33.9 µM.
Turning to `O=C(N1CCN(c2ncnc3[nH]nc(Br)c23)CC1)C1(c2ccc(Cl)c(Cl)c2)CCNCC1`, the results for the inhibition in [2] and in [3] were 90.9% and 93.8%, respectively. Moreover, the IC50 in [5] was 0.0305 µM; in data set [4], 10.3 µM.
`O=C(N1CCN(c2ncnc3[nH]ncc23)CC1)C1(c2ccc(Cl)c(Cl)c2)CCNCC1` returned an inhibition in data set [3] of 52.1%. This molecule showed an IC50 in [4] greater than 40 µM.
The corresponding values for `O=C(N1CCN(c2ncnc3ccccc23)CC1)C1(c2ccc(Cl)cc2)CCNCC1` are 34.2% and greater than 40 µM.
On the same counts, the results for `O=C(N1CCN(c2ncnc3[nH]cnc23)CC1)C1(c2ccc(F)cc2)CCNCC1` are 94.2% and greater than 40 µM.
`O=C(N1CCN(c2ncnc3ccccc23)CC1)C1(c2ccc(Br)cc2)CCNCC1` had an inhibition in data set [3] of 6.1%. Besides, the IC50 in data set [4] came to 22.8 µM.
With `O=C(N1CCN(c2ncnc3[nH]nc(Cl)c23)CC1)C1(c2ccc(Cl)cc2)CCNCC1`, the inhibition in [2] stood at 83.4%; in data set [3], 91.9%. Besides, the figures for the IC50 in [5] and in data set [4] were 0.0666 µM and 19.4 µM, respectively.
On to `O=C(N1CCN(c2ncnc3[nH]ncc23)CC1)C1(c2ccc(F)cc2)CCNCC1`, for which the inhibition in data set [3] was determined as 7.4%. This molecule also returned an IC50 in data set [4] greater than 40 µM.
The corresponding values for `O=C(N1CCN(c2ncnc3[nH]ncc23)CC1)C1(c2ccc(Cl)cc2)CCNCC1` are 38.7% and greater than 40 µM.
On to `O=C(N1CCN(c2ncnc3[nH]nc(Br)c23)CC1)C1(c2ccc(F)cc2)CCNCC1`, for which the results for the inhibition in data set [2] and in data set [3] were 53.3% and 93.2%, respectively. This molecule also came in with an IC50 in data set [4] of 36.6 µM.
Consider `O=C(N1CCN(c2ncnc3ccccc23)CC1)C1(c2ccc(Cl)c(Cl)c2)CCNCC1`, for which, in [3], the inhibition was 21.9%. Further, in data set [4], the IC50 was found to be 14 µM.
On to `O=C(O)Cc1ccccc1Nc1c(Cl)cccc1Cl` [DICLOFENAC], for which, in data set [7], the CLint scaled (as a rule, the rate of metabolic loss divided by the concentration) came to 123 mL/min/kg and the microsomal CLint (usually a measure of how fast metabolising enzymes remove a compound, apart from limits set by blood flow) stood at 136 µL/min/mg. The half-life (as a rule, the time in which the quantity being followed falls by half) in data set [8] is 10.2 min.
Molecule `O=C(Cc1ccc(Cl)cc1)N1CCN(c2ncnc3[nH]cc(Br)c23)CC1` returned an inhibition in data set [6] of 69.7%. In data set [4], this molecule yielded an IC50 of 21.1 µM.
As to `O=C(N1CCN(c2ncnc3[nH]nc(Br)c23)CC1)C1(c2ccc(Br)cc2)CCNCC1`, the inhibition was found to be 90.6% in data set [2] and 96.5% in [3]. Further, the IC50 in [5] is 0.0519 µM; in data set [4] it was 15 µM.
In data set [3], `O=C(N1CCN(c2ncnc3[nH]ncc23)CC1)C1(c2ccc(Br)cc2)CCNCC1` yielded an inhibition of 11.6%. In addition, the IC50 in data set [4] is greater than 40 µM.
With `O=C(N1CCN(c2ncnc3[nH]nc(Br)c23)CC1)C1(c2ccc(Cl)cc2)CCNCC1`, the figures for the inhibition in [2] and in data set [3] were 86.7% and 96.7%, respectively. Also, the results for the IC50 in data set [5] and in data set [4] were 0.0269 µM and 9.8 µM, respectively.
As for `O=C(N1CCN(c2ncnc3[nH]cnc23)CC1)C1(c2ccc(Cl)cc2)CCNCC1`, the inhibition in [3] came to 45.6%. The IC50 in data set [4] was greater than 40 µM.
As to `C[C@]12CC[C@H]3[C@@H](CCC4=CC(=O)CC[C@@]43C)[C@@H]1CC[C@@H]2O` [TESTOSTERONE], the amount remaining – broadly, what is left of the initial amount, in per cent – at 1 h in data set [9] amounted to 8.1%. In data set [7], this molecule came in with a CLint scaled of 74 mL/min/kg and a microsomal CLint of 82.2 µL/min/mg. Further, the half-life in data set [8] worked out at 16.9 min.
